In ChEMBL document CHEMBL5724914, “Linking interpersonal differences in gut microbiota composition and drug biotransformation activity” (2024):

Tests used:
[1] = human gut metagenome, 24 h, 2 µM
[2] = human gut metagenome, 24 h, 2 µM; remark: listed apart in the source
[3] = The drug is tested on Z-027 corresponding to metagenome with ENA study accession number: PRJEB37062 and ENA sample accession number: ERS12561826 for biotransformation under anaerobic condition. The drug concentrations were measured over 9 timepoints collected between 0 and 24 hours of incubation by liquid-chromatography-coupled mass spectrometry (LC–MS); details: 2 µM
[4] = human gut metagenome, 24 h, 2 µM; remark: listed apart in the source
[5] = The drug is tested on Z-002 corresponding to rabbit gut metagenome with ENA study accession number: PRJEB37062 and ENA sample accession number: ERS12561802 for biotransformation under anaerobic condition. The drug concentrations were measured over 9 timepoints collected between 0 and 24 hours of incubation by liquid-chromatography-coupled mass spectrometry (LC–MS); details: 2 µM
[6] = human gut metagenome, 24 h, 2 µM; remark: listed apart in the source
[7] = The drug is tested on WLS-027 corresponding to human gut metagenome with ENA study accession number: PRJEB37062 and ENA sample accession number: ERS12561744 for biotransformation under anaerobic condition. The drug concentrations were measured over 9 timepoints collected between 0 and 24 hours of incubation by liquid-chromatography-coupled mass spectrometry (LC–MS); details: 2 µM
[8] = The drug is tested on Z-018 corresponding to pig gut metagenome with ENA study accession number: PRJEB37062 and ENA sample accession number: ERS12561817 for biotransformation under anaerobic condition. The drug concentrations were measured over 9 timepoints collected between 0 and 24 hours of incubation by liquid-chromatography-coupled mass spectrometry (LC–MS); details: 2 µM
[9] = human gut metagenome, 24 h, 2 µM; remark: listed apart in the source
[10] = The drug is tested on Z-003 corresponding to pig gut metagenome with ENA study accession number: PRJEB37062 and ENA sample accession number: ERS12561803 for biotransformation under anaerobic condition. The drug concentrations were measured over 9 timepoints collected between 0 and 24 hours of incubation by liquid-chromatography-coupled mass spectrometry (LC–MS); details: 2 µM
[11] = human gut metagenome, 24 h, 2 µM; remark: listed apart in the source
[12] = The drug is tested on Z-013 corresponding to rabbit gut metagenome with ENA study accession number: PRJEB37062 and ENA sample accession number: ERS12561813 for biotransformation under anaerobic condition. The drug concentrations were measured over 9 timepoints collected between 0 and 24 hours of incubation by liquid-chromatography-coupled mass spectrometry (LC–MS); details: 2 µM
[13] = human gut metagenome, 24 h, 2 µM; remark: listed apart in the source
[14] = human gut metagenome, 24 h, 2 µM; remark: listed apart in the source
[15] = The drug is tested on WLS-038 corresponding to human gut metagenome with ENA study accession number: PRJEB37062 and ENA sample accession number: ERS12561745 for biotransformation under anaerobic condition. The drug concentrations were measured over 9 timepoints collected between 0 and 24 hours of incubation by liquid-chromatography-coupled mass spectrometry (LC–MS); details: 2 µM
[16] = The drug is tested on WLS-086 corresponding to human gut metagenome with ENA study accession number: PRJEB37062 and ENA sample accession number: ERS12561752 for biotransformation under anaerobic condition. The drug concentrations were measured over 9 timepoints collected between 0 and 24 hours of incubation by liquid-chromatography-coupled mass spectrometry (LC–MS); details: 2 µM
[17] = human gut metagenome, 24 h, 2 µM; remark: listed apart in the source
[18] = The drug is tested on Z-010 corresponding to metagenome with ENA study accession number: PRJEB37062 and ENA sample accession number: ERS12561810 for biotransformation under anaerobic condition. The drug concentrations were measured over 9 timepoints collected between 0 and 24 hours of incubation by liquid-chromatography-coupled mass spectrometry (LC–MS); details: 2 µM
[19] = The drug is tested on Z-028 corresponding to mouse gut metagenome with ENA study accession number: PRJEB37062 and ENA sample accession number: ERS12561827 for biotransformation under anaerobic condition. The drug concentrations were measured over 9 timepoints collected between 0 and 24 hours of incubation by liquid-chromatography-coupled mass spectrometry (LC–MS); details: 2 µM
[20] = human gut metagenome, 24 h, 2 µM; remark: listed apart in the source
Also: call rule not given here.

Structure (SMILES) | Bacterial Biotransformation [1] | Bacterial Biotransformation [2] | Bacterial Biotransformation [3] | Bacterial Biotransformation [4] | Bacterial Biotransformation [5] | Bacterial Biotransformation [6] | Bacterial Biotransformation [7] | Bacterial Biotransformation [8] | Bacterial Biotransformation [9] | Bacterial Biotransformation [10] | Bacterial Biotransformation [11] | Bacterial Biotransformation [12] | Bacterial Biotransformation [13] | Bacterial Biotransformation [14] | Bacterial Biotransformation [15] | Bacterial Biotransformation [16] | Bacterial Biotransformation [17] | Bacterial Biotransformation [18] | Bacterial Biotransformation [19] | Bacterial Biotransformation [20]
C=CC[C@@H]1/C=C(\C)C[C@H](C)C[C@H](OC)[C@H]2O[C@@](O)(C(=O)C(=O)N3CCCC[C@H]3C(=O)O[C@H](/C(C)=C/[C@@H]3CC[C@@H](O)[C@H](OC)C3)[C@H](C)[C@@H](O)CC1=O)[C@H](C)C[C@@H]2OC.O [TACROLIMUS] | Compound NOT metabolized | Compound NOT metabolized | Compound NOT metabolized | Compound metabolized | Compound metabolized | Compound metabolized | Compound metabolized | Compound NOT metabolized | Compound metabolized | Compound metabolized | Compound NOT metabolized | Compound NOT metabolized | Compound metabolized | Compound metabolized | Compound metabolized | Compound metabolized | Compound NOT metabolized | Compound NOT metabolized | Compound NOT metabolized | Compound metabolized
CCS(=O)(=O)CCn1c([N+](=O)[O-])cnc1C [TINIDAZOLE] | Compound metabolized | Compound metabolized | Compound metabolized | Compound metabolized | Compound metabolized | Compound metabolized | Compound metabolized | Compound metabolized | Compound metabolized | Compound metabolized | Compound metabolized | Compound metabolized | Compound metabolized | Compound metabolized | Compound metabolized | Compound metabolized | Compound metabolized | Compound metabolized | Compound metabolized | Compound metabolized
COc1ccc(CN2CCNCC2)c(OC)c1OC.Cl.Cl [TRIMETAZIDINE DIHYDROCHLORIDE] | Compound NOT metabolized | Compound NOT metabolized | Compound NOT metabolized | Compound NOT metabolized | Compound NOT metabolized | Compound NOT metabolized | Compound NOT metabolized | Compound NOT metabolized | Compound NOT metabolized | Compound NOT metabolized | Compound NOT metabolized | Compound NOT metabolized | Compound NOT metabolized | Compound NOT metabolized | Compound NOT metabolized | Compound NOT metabolized | Compound NOT metabolized | Compound NOT metabolized | Compound NOT metabolized | Compound NOT metabolized
CN1[C@@H]2CC[C@H]1C[C@@H](OC(=O)c1c[nH]c3ccccc13)C2 [TROPISETRON] | Compound NOT metabolized | Compound NOT metabolized | Compound NOT metabolized | Compound NOT metabolized | Compound NOT metabolized | Compound NOT metabolized | Compound NOT metabolized | Compound NOT metabolized | Compound NOT metabolized | Compound NOT metabolized | Compound NOT metabolized | Compound NOT metabolized | Compound NOT metabolized | Compound NOT metabolized | Compound NOT metabolized | Compound metabolized | Compound NOT metabolized | Compound NOT metabolized | Compound NOT metabolized | Compound NOT metabolized
C[C@@H](c1ncncc1F)[C@](O)(Cn1cncn1)c1ccc(F)cc1F [VORICONAZOLE] | Compound metabolized | Compound metabolized | Compound NOT metabolized | Compound metabolized | Compound metabolized | Compound metabolized | Compound metabolized | Compound metabolized | Compound metabolized | Compound metabolized | Compound metabolized | Compound NOT metabolized | Compound metabolized | Compound metabolized | Compound metabolized | Compound metabolized | Compound metabolized | Compound metabolized | Compound NOT metabolized | Compound metabolized
